Test results taken from patent publication US5994055A, “HIV trans-activator Tat binding to CDK7 and activation of CTD phosphorylation” (priority 1997, dated 1999).
Where no end group is shown, it is not given here. [ ]: non-standard residue; d: D form.

Columns and labels:
[1] = target: T1, recombinant CAK (CDK7, cyclin H, MAT1) (Homo sapiens, UniProt P50613); assay: Kinase reaction: phosphorylation of the CTD by recombinant CAK; format: biochemical
T1 construct: made in house; host or cells: Sf9 insect cells (baculovirus co-infection)
Description: Recombinant baculoviruses encoding human CDK7 (Fisher et al., Cell 78:713-724 (1994)), MAT1 (Fisher et al., Cell 83:47-57 (1995)), and an N-terminally 6-histidine tagged version of cyclin H (Kim et al., Cell 77:599-608 (1994)) were constructed as described. 4×10^9 Sf9 insect cells were co-infected with all three baculoviruses (multiplicity of infection for each virus: 5 pfu/cell), incubated 2 days at 28° C., and harvested by centrifugation. Cells were resuspended in 120 ml buffer A (20 mM Na phosphate, 25 mM NaCl, 1 mM PMSF, 1 Ag/ml leupeptin, 2 μg/ml aprotinin, 1 mM DTT (pH 7.4). NaCl concentration was raised to 300 mM and the lysate was clarified by centrifugation and loaded over tandem 5-ml Pharmacia HiTrap Chelating columns loaded with CoCl2 and preequilibrated with buffer B (300 mM NaCl, 20 mM Na phosphate, 10% glycerol (pH 7.2)). The column was washed with buffer B+1 mM DTT and eluted with a linear gradient of 0-200 mM imidazole in buffer B+1 mM DTT. Fractions containing the CAK trimer were pooled, diluted 4-fold in buffer C (20 mM Hepes-NaOH, 1 mM EDTA, 10% glycerol, 1 mM DTT (pH 7.4)), and loaded on a 5 ml Pharmacia HiTrap Q column pre-equilibrated with buffer C. The column was washed with buffer C and eluted with a linear gradient of 25-1000 mM NaCl in buffer C. […]

DHFR promoter = assay: In vitro transcription from the DHFR promoter (G-less cassette); format: biochemical; conditions: concentration not given
Description: Run-off transcription reactions from the wild-type HIV LTR and AdMLT promoters linearized with NcoI and HindIII respectively, were carried out as described (Okamoto et al., Proc. Natl. Acad. Sci. USA 93:11575-11579 (1996); Cujec et al., Mol. Cell. Biol. 17:1817-1823 (1997)). Transcription reactions containing the DHFR promoter (500 ng) fused to a G-less cassette (linearized at Nco I) were supplemented with 3 mM (NH4)2 SO4, 2% PEG 8000, 50 units of T1 RNase (Boehringer-Mannheim), 500 U of RNase inhibitor (Boehringer-Mannheim) and contained 5 μM instead of 40 μM of unlabeled UTP. Phosphocreatine, poly (d)I-(d)C, and poly(rI-rC) were omitted from the reactions.

[2] = test system: Tat trans-activation of the HIV LTR in COS-7 cells; assay: Peptide electroporation into COS-7 cells with pHIVΔKBCAT reporter, RNase protection assay; format: cell-based
[3] = test system: Tat trans-activation of the HIV LTR; assay: In vitro run-off transcription from the wild-type HIV LTR; format: biochemical; conditions: increasing concentrations / concentration not stated
Description: The ability of molecules to inhibit Tat trans-activation can be assessed using a variety of in vitro and in vivo assays. For example, Tat trans-activation can be assessed using in vitro run-off transcription reactions with transcription extracts (see, e.g., Current Protocols in Molecular Biology (Ausubel et al., eds., 1997)). In such an assay, nuclear transcription extracts are prepared from cultured mammalian cells according to standard procedures (see, e.g., Dignam et al., Nuc. Acids. Res. 11: 1475-1489 (1983)). Recombinant Tat protein is isolated according to standard procedures and added to the nuclear transcription extract along with the other components of the transcription reaction such as nucleotides (see, e.g., Cujec et al., supra; Example V). The reaction is also supplied with HIV promoter DNA sequences operably linked to a structural gene.
Run-off transcription reactions from the wild-type HIV LTR and AdMLT promoters linearized with NcoI and HindIII respectively, were carried out as described (Okamoto et al., Proc. Natl. Acad. Sci. USA 93:11575-11579 (1996); Cujec et al., Mol. Cell. Biol. 17:1817-1823 (1997)). […]

T1 sequence (P51946 whole entry): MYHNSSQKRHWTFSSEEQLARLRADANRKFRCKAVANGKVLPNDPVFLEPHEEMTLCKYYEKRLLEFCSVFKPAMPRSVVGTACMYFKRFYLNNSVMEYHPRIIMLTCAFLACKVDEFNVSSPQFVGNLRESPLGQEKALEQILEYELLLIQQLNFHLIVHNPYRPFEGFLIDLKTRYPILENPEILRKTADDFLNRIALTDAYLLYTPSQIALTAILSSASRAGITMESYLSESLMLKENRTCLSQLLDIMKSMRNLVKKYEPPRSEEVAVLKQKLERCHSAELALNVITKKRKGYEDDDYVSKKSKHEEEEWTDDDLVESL
T1 sequence (P50613 2-346): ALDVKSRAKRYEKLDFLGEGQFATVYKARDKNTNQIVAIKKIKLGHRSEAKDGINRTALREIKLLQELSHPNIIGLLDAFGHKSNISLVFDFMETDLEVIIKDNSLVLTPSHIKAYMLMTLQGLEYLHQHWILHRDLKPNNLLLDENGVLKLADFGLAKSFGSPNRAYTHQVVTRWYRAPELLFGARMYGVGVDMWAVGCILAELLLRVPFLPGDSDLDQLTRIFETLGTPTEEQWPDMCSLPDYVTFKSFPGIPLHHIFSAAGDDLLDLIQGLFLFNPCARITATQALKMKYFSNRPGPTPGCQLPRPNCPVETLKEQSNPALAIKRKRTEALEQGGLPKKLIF
T1 sequence (P51949 whole entry, further chain): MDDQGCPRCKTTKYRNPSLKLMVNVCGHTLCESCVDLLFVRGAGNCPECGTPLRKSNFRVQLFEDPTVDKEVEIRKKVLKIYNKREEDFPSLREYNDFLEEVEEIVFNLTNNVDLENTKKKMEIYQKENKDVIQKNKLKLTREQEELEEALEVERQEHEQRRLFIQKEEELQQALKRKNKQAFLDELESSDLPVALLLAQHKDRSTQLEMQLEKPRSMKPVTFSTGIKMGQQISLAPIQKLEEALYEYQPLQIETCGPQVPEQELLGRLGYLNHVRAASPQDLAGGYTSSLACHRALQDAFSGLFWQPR

Substance	IC50 [1] [µM]	effect on the kinase activity of CAK ([1]; concentration not given)	transcription from the DHFR promoter (DHFR promoter)	transcription in the absence of Tat ([2]; increasing concentrations, data not presented)	ratio of long to short transcripts ([2]; regardless of peptide concentration)	Tat trans-activation [3]
ARAFGVPVRTYAHEVVTLWYRA [mC2p]	1.3					
HARTVGVWYRAEYARFVTPaVV (HARTVGVWYRAEYARFVTP[dA]VV) [rC2p, control]		no effect	no effect	no effect	remained the same	did not affect
